Source: publication PMC11873939, “Target Identification with Live-Cell Photoaffinity Labeling and Mechanism of Action Elucidation of ARN23765, a Highly Potent CFTR Corrector” (Journal of Medicinal Chemistry, 2025)

Experiments:
F508del-CFTR = target: T1, F508del-CFTR (Homo sapiens, UniProt P13569, DEL508-508); experiment: HS-YFP functional assay in CFBE41o- cells stably overexpressing F508del-CFTR; type: cell-based; conditions: 24 h treatment
T1 construct: expressed in transfected cells
Experimental: These analogues were tested in the functional assay on the human bronchial epithelia-derived cell line, CFBE41o-, which stably overexpresses F508del-CFTR and the halide-sensitive yellow fluorescent protein (HS-YFP).[31] […]
HS-YFP-based assay for CFTR activity
Twenty-four hours after seeding on 96-well plates, CFBE41o- cells stably over-expressing F508del-CFTR and the HS-YFP were treated with test compounds at different concentrations in the 3 nM-10 µM range.1 Cells treated with vehicle alone (DMSO) and with ARN23765, respectively, served as negative and positive controls. The following day, cells were washed with PBS containing (in mM) 137 NaCl, 2.7 KCl, 8.1 Na2HPO4, 1.5 KH2PO4, 1.0 CaCl2, and 0.5 MgCl2. Cells were then incubated for 25 min with […] of PBS plus forskolin (20 µM) and VX-770 (1 µM) to maximally stimulate F508del-CFTR. Cells were then transferred to a microplate reader (FluoStar Galaxy; BMG Labtech, Offenburg, Germany) for CFTR activity determination. The plate reader was equipped with high-quality excitation (HQ500/20X: 500 ± 10 nm) and emission (HQ535/30M: 535 ± 15 nm) filters for YFP (Chroma Technology). Each assay comprised a continuous 14 s fluorescence reading, 2 s before and 12 s after injection of […] of an iodide-containing solution (PBS with Cl- replaced by I-; final I- concentration […]). Data were normalized to the initial background-subtracted fluorescence. To determine I- influx rate, the final 11 s of the data for each well were fitted with an exponential function to extrapolate initial slope (dF/dt). Reproducibility of results was confirmed by performing three independent experiments. […]

F508del/R1070W-CFTR = target: T2, F508del/R1070W-CFTR (Homo sapiens, UniProt P13569, DEL508-508/R1070W); experiment: Protein maturation assay (WB, band C/(C+B)) in transfected HEK293 cells; type: cell-based; conditions: HEK293, 24 h; ARN23765 10 nM, VX-661 3 μM
T2 construct: CFTR identification in pull-down studies and analysis of full-length CFTR in protein maturation assays; expressed in transfected cells; host or cells: HEK293 (transient)
T2 sequence (P13569 with tags, fused parts or gaps DEL508-508/R1070W): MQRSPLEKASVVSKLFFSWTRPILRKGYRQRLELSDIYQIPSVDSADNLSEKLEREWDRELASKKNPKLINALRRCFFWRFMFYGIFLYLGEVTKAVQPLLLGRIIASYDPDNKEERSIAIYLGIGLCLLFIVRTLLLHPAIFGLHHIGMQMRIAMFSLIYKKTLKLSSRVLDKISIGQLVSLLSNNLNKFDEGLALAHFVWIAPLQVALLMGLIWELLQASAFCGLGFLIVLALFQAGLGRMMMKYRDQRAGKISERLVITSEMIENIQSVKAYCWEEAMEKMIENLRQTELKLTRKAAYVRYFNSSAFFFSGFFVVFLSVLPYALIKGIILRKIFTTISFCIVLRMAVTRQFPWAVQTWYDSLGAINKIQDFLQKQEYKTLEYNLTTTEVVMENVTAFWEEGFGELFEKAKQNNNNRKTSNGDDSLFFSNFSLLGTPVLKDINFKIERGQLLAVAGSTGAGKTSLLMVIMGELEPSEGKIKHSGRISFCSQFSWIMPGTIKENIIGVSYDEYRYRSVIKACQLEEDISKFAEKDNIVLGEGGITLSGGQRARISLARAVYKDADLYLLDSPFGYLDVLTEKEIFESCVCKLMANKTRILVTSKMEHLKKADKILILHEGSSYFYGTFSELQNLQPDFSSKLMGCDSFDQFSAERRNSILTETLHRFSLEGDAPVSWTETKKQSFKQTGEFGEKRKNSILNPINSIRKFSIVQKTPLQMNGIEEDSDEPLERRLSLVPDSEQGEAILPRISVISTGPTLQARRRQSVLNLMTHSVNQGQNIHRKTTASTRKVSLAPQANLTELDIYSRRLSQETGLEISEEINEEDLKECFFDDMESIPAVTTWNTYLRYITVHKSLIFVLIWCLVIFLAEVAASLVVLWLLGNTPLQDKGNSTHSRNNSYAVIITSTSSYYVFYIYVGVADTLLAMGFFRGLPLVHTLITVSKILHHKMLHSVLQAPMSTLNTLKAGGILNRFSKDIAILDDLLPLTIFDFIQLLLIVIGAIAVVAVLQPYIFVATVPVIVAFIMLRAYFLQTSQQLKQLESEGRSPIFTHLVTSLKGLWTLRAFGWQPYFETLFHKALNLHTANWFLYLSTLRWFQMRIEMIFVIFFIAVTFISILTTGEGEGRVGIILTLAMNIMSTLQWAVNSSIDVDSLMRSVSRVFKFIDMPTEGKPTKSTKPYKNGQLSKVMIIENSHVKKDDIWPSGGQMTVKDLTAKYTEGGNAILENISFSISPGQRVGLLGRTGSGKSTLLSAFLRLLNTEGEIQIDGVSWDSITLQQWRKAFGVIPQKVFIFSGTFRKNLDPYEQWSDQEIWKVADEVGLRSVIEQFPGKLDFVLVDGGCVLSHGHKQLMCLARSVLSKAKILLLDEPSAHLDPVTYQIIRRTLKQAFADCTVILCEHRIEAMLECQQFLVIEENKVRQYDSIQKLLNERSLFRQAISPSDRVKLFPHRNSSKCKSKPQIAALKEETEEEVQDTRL
Experimental: HEK293 cells were plated in 24-wells at around 80% of confluence and transfected with constructs coding for F508del-CFTR or mutants using JetPEI reagent (101000053, Polyplus Technology) following the manufacturer’s instructions. After 24 h, the correctors were added for a further 24 h. […] For binding site analysis experiments, the cells were kept either at 37 °C (Figure S8) or moved to 30 °C (Figure 9) during incubation with the selected correctors. VX-445 and corrector 3151 were mixed together as a control for maximal protein correction. DMSO (0.2%) was added to nontreated controls. After treatment, cells were lysed in RIPA buffer [50 mM tris-HCl pH 8, 150 mM NaCl, 1% NP40, 0.5% sodium deoxycolate, 0.1% SDS, 2.0 mM EDTA] and lysates were analyzed with WB, as described in the supplementary methods of the Supporting Information.

CFTR = tested on: CFTR; set-up: method as in PMID 32128418; conditions: HS-YFP assay; cited from earlier work
R170G-CFTR = target: T3, R170G-CFTR (Homo sapiens, UniProt P13569, R170G); experiment: Protein maturation assay (WB, band C/(C+B)) in transfected HEK293 cells; type: cell-based; conditions: HEK293, 24 h, 10 nM
T3 construct: CFTR identification in pull-down studies and analysis of full-length CFTR in protein maturation assays; expressed in transfected cells; host or cells: HEK293 (transient)
T3 sequence (P13569 whole entry R170G): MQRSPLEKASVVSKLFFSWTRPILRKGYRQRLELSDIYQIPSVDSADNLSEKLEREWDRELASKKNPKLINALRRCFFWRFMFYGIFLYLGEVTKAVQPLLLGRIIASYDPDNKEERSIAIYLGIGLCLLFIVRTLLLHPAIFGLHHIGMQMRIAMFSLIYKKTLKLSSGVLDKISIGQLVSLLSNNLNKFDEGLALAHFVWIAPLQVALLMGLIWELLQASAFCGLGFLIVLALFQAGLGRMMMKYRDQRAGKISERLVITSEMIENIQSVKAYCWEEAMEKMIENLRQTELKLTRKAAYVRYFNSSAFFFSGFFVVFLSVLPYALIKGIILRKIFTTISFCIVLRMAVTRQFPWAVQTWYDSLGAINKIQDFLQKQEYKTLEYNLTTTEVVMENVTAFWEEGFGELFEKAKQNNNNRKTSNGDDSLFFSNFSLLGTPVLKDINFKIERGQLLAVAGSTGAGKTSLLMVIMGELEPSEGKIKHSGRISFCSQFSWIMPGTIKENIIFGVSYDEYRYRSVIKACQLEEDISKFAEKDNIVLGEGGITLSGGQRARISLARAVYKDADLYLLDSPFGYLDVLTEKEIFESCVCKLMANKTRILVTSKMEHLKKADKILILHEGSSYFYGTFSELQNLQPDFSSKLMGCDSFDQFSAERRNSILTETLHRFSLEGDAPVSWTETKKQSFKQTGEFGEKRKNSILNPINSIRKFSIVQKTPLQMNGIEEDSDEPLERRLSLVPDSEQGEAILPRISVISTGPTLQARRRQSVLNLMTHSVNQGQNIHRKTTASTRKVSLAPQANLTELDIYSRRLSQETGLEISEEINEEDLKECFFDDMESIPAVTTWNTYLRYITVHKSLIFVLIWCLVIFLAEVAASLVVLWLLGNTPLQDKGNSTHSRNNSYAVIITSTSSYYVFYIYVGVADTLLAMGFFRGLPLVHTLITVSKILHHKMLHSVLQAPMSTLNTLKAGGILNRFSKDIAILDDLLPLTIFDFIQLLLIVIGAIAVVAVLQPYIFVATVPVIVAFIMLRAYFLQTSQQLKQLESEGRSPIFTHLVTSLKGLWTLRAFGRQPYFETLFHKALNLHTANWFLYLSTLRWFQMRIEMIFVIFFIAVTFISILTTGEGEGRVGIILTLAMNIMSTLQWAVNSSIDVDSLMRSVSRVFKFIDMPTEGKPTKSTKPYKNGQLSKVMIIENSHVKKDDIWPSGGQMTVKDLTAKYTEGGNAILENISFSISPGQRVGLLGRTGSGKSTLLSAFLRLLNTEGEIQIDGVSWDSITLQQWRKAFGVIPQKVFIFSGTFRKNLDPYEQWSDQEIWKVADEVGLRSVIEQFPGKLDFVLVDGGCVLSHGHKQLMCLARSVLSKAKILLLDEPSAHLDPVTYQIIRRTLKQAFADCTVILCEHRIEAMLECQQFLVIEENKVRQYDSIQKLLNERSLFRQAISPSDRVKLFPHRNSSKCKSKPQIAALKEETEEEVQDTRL
Experimental: HEK293 cells were plated in 24-wells at around 80% of confluence and transfected with constructs coding for F508del-CFTR or mutants using JetPEI reagent (101000053, Polyplus Technology) following the manufacturer’s instructions. After 24 h, the correctors were added for a further 24 h. Correctors were used at the following concentrations: ARN23765 (10 nM), VX-445 (3 μM), and 3151 (10 μM). For binding site analysis experiments, the cells were kept either at 37 °C (Figure S8) or moved to 30 °C (Figure 9) during incubation with the selected correctors. VX-445 and corrector 3151 were mixed together as a control for maximal protein correction. DMSO (0.2%) was added to nontreated controls. After treatment, cells were lysed in RIPA buffer [50 mM tris-HCl pH 8, 150 mM NaCl, 1% NP40, 0.5% sodium deoxycolate, 0.1% SDS, 2.0 mM EDTA] and lysates were analyzed with WB, as described in the supplementary methods of the Supporting Information.

T1 sequence (P13569 with tags, fused parts or gaps DEL508-508): as the sequence (P13569 with tags, fused parts or gaps DEL508-508/R1070W) above, with W1069R counted along it

Structure (SMILES): CN(C(=O)c1cccc(-n2nc(C(F)(F)F)c3c2[C@@H](Oc2ccc(C(=O)O)cc2)CCC3)c1)c1ccc2c(c1)OC(F)(F)O2 [ARN23765]
- EC50 (F508del-CFTR; 3 nM-10 µM range): < 3 nM
- HS-YFP assay in CFBE41o- cells Emax (F508del-CFTR; values normalized to DMSO-incubated cells): 2.7
- F508del/R1070W protein maturation (F508del/R1070W-CFTR): further enhanced
- Effect on the protein gating (CFTR): no effect
- R170G-CFTR maturation (R170G-CFTR): improving
